SMILES strings stand for the structures.

Assay type in all cases: in vivo
Data set [1] deals with Echinochloa oryzacola Vasing. The data set is described as follows: Test Example 1: herbicidal activity, application before weed generation in submerged conditions. The following applies: Application herbicide amount 320 g/ha; Seventeenth Table. The essentials: (§1)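 Pre-emergence water-surface application under 4 cm flooding, same day as sowing, with rice transplanted at 2.5 leaf stage. Dose given as g/ha. Plants grown at 25° C. to 30° C. and rated three weeks later on a 0 (≤5%) to 5 (≥90%) herbicidal-ratio scale.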

The test system of data set [2] is Monochoria vaginalis. The description is as above. The following applies: Application herbicide amount 320 g/ha; Seventeenth Table. The essentials:
as §1

In data set [3] the test system is Scirpus juncoides. The data set is described as above. Particulars: Application herbicide amount 320 g/ha; Seventeenth Table. The procedure, abridged: as §1
In data set [4] the test system is Cyperus difformis. The data set is described as follows: Test Example 3: herbicidal effect by application to foliage (Wagner pot, water depth 0.1-0.5 cm). The following applies: Nineteenth Table; application to foliage; application herbicide amount 320 g/ha. The procedure, abridged:
(§2)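 Rice-field weeds and directly sown rice were grown 14 days in flooded alluvial soil (water depth 0.1–0.5 cm) at 25–30 °C in a greenhouse. An emulsion formulation diluted to the stated g/ha rate was sprayed onto stems and leaves. Effects were scored on a 0–5 scale (herbicidal ratio bands) three weeks after treatment.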

Data set [5] deals with Echinochloa crus-galli var. crus-galli. The description is as above. Particulars: Nineteenth Table; application to foliage; application herbicide amount 320 g/ha. The procedure, abridged:
as §2

The subject of data set [6] is Leptochloa chinensis. The description is as above. The following applies: Nineteenth Table; application to foliage; application herbicide amount 320 g/ha. The essentials:
as §2

Data set [7] deals with Glycine max. The data set is described as follows: Test Example 4: effect on crop by application to foliage (diluvial soil, plastic box). The following applies: for d (Glycine max) effect on crop grade: Application herbicide amount 320 g/ha; for d: effect on crop, Glycine max: application to foliage, application herbicide amount 320 g/ha. The procedure, abridged: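 Seeds sown in sterilized diluvial soil, covered ~1.5 cm, grown 14 days in greenhouse at 25° C. to 30° C. Emulsion formulation diluted in water to set rate (g/ha) and sprayed onto stems and leaves. Effect scored visually 3 weeks later on 0–5 scale (5 = ≥90% herbicidal ratio, 0 = ≤5%).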

Consider `Cc1nnc(NC(=O)c2ccc(C(F)(F)F)n3c(N4CCSCC4)nnc23)o1` [1-118], for which the “A: Echinochloa oryzicola Vasing. (herbicidal effect grade)” value in data set [1] was 3 (Herbicidal ratio of 40% or more and less than 70%). For the same molecule, the “C: Monochoria vaginalis (herbicidal effect grade)” value (shortened to “C: Monochoria vaginalis”) in data set [2] is recorded as 0 (Herbicidal ratio of 5% or less (almost no effect)). The “B: Scirpus juncoides (herbicidal effect grade)” value (shortened to “B: Scirpus juncoides”) in data set [3] was 2 (Herbicidal ratio of 20% or more and less than 40%). Also, in data set [4], the “E (herbicidal effect grade)” value is 3 (Herbicidal ratio of 40% or more and less than 70%). In data set [5], the “H (herbicidal effect grade)” value was 5 (Herbicidal ratio of 90% or more (almost completely withered)). In addition, in data set [6], the “D (herbicidal effect grade)” value is listed as 5 (Herbicidal ratio of 90% or more (almost completely withered)). Moreover, in data set [7] (foliage application), the “d (Glycine max) effect on crop grade” value is 4 (Herbicidal ratio of 70% or more and less than 90%).
As to `Cn1nnnc1NC(=O)c1ccc(C(F)(F)F)n2c(C3CC3)nnc12` [2-005], the “A: Echinochloa oryzicola Vasing. (herbicidal effect grade)” value in data set [1] was 5 (Herbicidal ratio of 90% or more (almost completely withered)). For the same molecule, in data set [2], the “C: Monochoria vaginalis” value is listed as 5 (Herbicidal ratio of 90% or more (almost completely withered)). Also, the “B: Scirpus juncoides” value in data set [3] is 5 (Herbicidal ratio of 90% or more (almost completely withered)). Moreover, in data set [4], the “E (herbicidal effect grade)” value was 4 (Herbicidal ratio of 70% or more and less than 90%). Moreover, the “H (herbicidal effect grade)” value in data set [5] is listed as 5 (Herbicidal ratio of 90% or more (almost completely withered)). In addition, the “D (herbicidal effect grade)” value in data set [6] is recorded as 5 (Herbicidal ratio of 90% or more (almost completely withered)). Moreover, the “d: effect on crop, Glycine max” value in data set [7] was 3 (Herbicidal ratio of 40% or more and less than 70%).
On to `CSCc1nnc2c(C(=O)Nc3nnnn3C)ccc(C(F)(F)F)n12` [2-029], for which, in data set [1], the “A: Echinochloa oryzicola Vasing. (herbicidal effect grade)” value is reported as 5 (Herbicidal ratio of 90% or more (almost completely withered)). The “C: Monochoria vaginalis” value in data set [2] was 5 (Herbicidal ratio of 90% or more (almost completely withered)). Besides, the “B: Scirpus juncoides” value in data set [3] is 5 (Herbicidal ratio of 90% or more (almost completely withered)). In addition, in data set [4], the “E (herbicidal effect grade)” value was 5 (Herbicidal ratio of 90% or more (almost completely withered)). The “H (herbicidal effect grade)” value in data set [5] is recorded as 5 (Herbicidal ratio of 90% or more (almost completely withered)). The “D (herbicidal effect grade)” value in data set [6] is reported as 5 (Herbicidal ratio of 90% or more (almost completely withered)). For the same molecule, the “c (Glycine max) effect on crop grade” value in data set [7] (foliage application, 320 g/ha) was 4 (Herbicidal ratio of 70% or more and less than 90%).
`COc1cc(OC)cc(-c2nnc3c(C(=O)Nc4nnco4)ccc(C(F)(F)F)n23)c1` [1-148]: in data set [1], the “A: Echinochloa oryzicola Vasing. (herbicidal effect grade)” value is 5 (Herbicidal ratio of 90% or more (almost completely withered)). The “C: Monochoria vaginalis” value in data set [2] is on record as 5 (Herbicidal ratio of 90% or more (almost completely withered)). The “B: Scirpus juncoides” value in data set [3] is recorded as 5 (Herbicidal ratio of 90% or more (almost completely withered)). Further, the “E (herbicidal effect grade)” value in data set [4] was 5 (Herbicidal ratio of 90% or more (almost completely withered)). The “H (herbicidal effect grade)” value in data set [5] is 5 (Herbicidal ratio of 90% or more (almost completely withered)). For the same molecule, in data set [6], the “D (herbicidal effect grade)” value is given as 5 (Herbicidal ratio of 90% or more (almost completely withered)). In addition, the “d (Glycine max) effect on crop grade” value in data set [7] (foliage application) is 3 (Herbicidal ratio of 40% or more and less than 70%).
With `CCN(CC)c1nnc2c(C(=O)Nc3nnco3)ccc(C(F)(F)F)n12` [1-138], the “A: Echinochloa oryzicola Vasing. (herbicidal effect grade)” value in data set [1] is given as 5 (Herbicidal ratio of 90% or more (almost completely withered)). In addition, the “C: Monochoria vaginalis” value in data set [2] was 4 (Herbicidal ratio of 70% or more and less than 90%). In addition, in data set [3], the “B: Scirpus juncoides” value is on record as 5 (Herbicidal ratio of 90% or more (almost completely withered)). Also, in data set [4], the “E (herbicidal effect grade)” value was 4 (Herbicidal ratio of 70% or more and less than 90%). The “H (herbicidal effect grade)” value in data set [5] is 5 (Herbicidal ratio of 90% or more (almost completely withered)). For the same molecule, the “D (herbicidal effect grade)” value in data set [6] was 5 (Herbicidal ratio of 90% or more (almost completely withered)). Moreover, the “d (Glycine max) effect on crop grade” value in data set [7] (foliage application) was 3 (Herbicidal ratio of 40% or more and less than 70%).
Consider `O=C(Nc1nnco1)c1ccc(C(F)(F)F)n2c(-c3ccc(F)cc3)nnc12` [1-147], for which the “A: Echinochloa oryzicola Vasing. (herbicidal effect grade)” value in data set [1] is 5 (Herbicidal ratio of 90% or more (almost completely withered)). Besides, the “C: Monochoria vaginalis” value in data set [2] is 5 (Herbicidal ratio of 90% or more (almost completely withered)). For the same molecule, in data set [3], the “B: Scirpus juncoides” value is 5 (Herbicidal ratio of 90% or more (almost completely withered)). Further, the “E (herbicidal effect grade)” value in data set [4] was 3 (Herbicidal ratio of 40% or more and less than 70%). For the same molecule, the “H (herbicidal effect grade)” value in data set [5] is given as 5 (Herbicidal ratio of 90% or more (almost completely withered)). The “D (herbicidal effect grade)” value in data set [6] is recorded as 5 (Herbicidal ratio of 90% or more (almost completely withered)). Besides, the “d (Glycine max) effect on crop grade” value in data set [7] (foliage application) was 3 (Herbicidal ratio of 40% or more and less than 70%).
As to `Cc1nnc(NC(=O)c2ccc(C(F)(F)F)n3c(SCC(F)(F)F)nnc23)o1` [1-124], the “A: Echinochloa oryzicola Vasing. (herbicidal effect grade)” value in data set [1] is 3 (Herbicidal ratio of 40% or more and less than 70%). In data set [2], the “C: Monochoria vaginalis” value is 1 (Herbicidal ratio of 5% or more and less than 20%). Also, in data set [3], the “B: Scirpus juncoides” value is 3 (Herbicidal ratio of 40% or more and less than 70%). In addition, in data set [4], the “E (herbicidal effect grade)” value was 4 (Herbicidal ratio of 70% or more and less than 90%). Besides, the “H (herbicidal effect grade)” value in data set [5] was 4 (Herbicidal ratio of 70% or more and less than 90%). Also, the “D (herbicidal effect grade)” value in data set [6] was 4 (Herbicidal ratio of 70% or more and less than 90%). Also, in data set [7] (foliage application), the “d (Glycine max) effect on crop grade” value was 3 (Herbicidal ratio of 40% or more and less than 70%).
As to `Cn1nnnc1NC(=O)c1ccc(C(F)(F)F)n2c(Br)nnc12` [2-009], the “A: Echinochloa oryzicola Vasing. (herbicidal effect grade)” value in data set [1] was 3 (Herbicidal ratio of 40% or more and less than 70%). For the same molecule, in data set [2], the “C: Monochoria vaginalis” value is 4 (Herbicidal ratio of 70% or more and less than 90%). Besides, the “B: Scirpus juncoides” value in data set [3] was 3 (Herbicidal ratio of 40% or more and less than 70%). For the same molecule, the “E (herbicidal effect grade)” value in data set [4] was 3 (Herbicidal ratio of 40% or more and less than 70%). For the same molecule, the “H (herbicidal effect grade)” value in data set [5] is on record as 5 (Herbicidal ratio of 90% or more (almost completely withered)). The “D (herbicidal effect grade)” value in data set [6] was 4 (Herbicidal ratio of 70% or more and less than 90%). Moreover, the “d: effect on crop, Glycine max” value in data set [7] is 4 (Herbicidal ratio of 70% or more and less than 90%).
As to `Cc1nnc(NC(=O)c2ccc(C(F)(F)F)n3c(SCC4OCCO4)nnc23)o1` [1-126], the “A: Echinochloa oryzicola Vasing. (herbicidal effect grade)” value in data set [1] is 3 (Herbicidal ratio of 40% or more and less than 70%). The “C: Monochoria vaginalis” value in data set [2] was 2 (Herbicidal ratio of 20% or more and less than 40%). In data set [3], the “B: Scirpus juncoides” value was 4 (Herbicidal ratio of 70% or more and less than 90%). Further, the “E (herbicidal effect grade)” value in data set [4] was 4 (Herbicidal ratio of 70% or more and less than 90%). Also, the “H (herbicidal effect grade)” value in data set [5] is 4 (Herbicidal ratio of 70% or more and less than 90%). Also, in data set [6], the “D (herbicidal effect grade)” value is 4 (Herbicidal ratio of 70% or more and less than 90%). Also, the “d (Glycine max) effect on crop grade” value in data set [7] (foliage application) is 2 (Herbicidal ratio of 20% or more and less than 40%).
